Assay results from US20250011348A1, “Synthesis Process of X-IPM, Stable Crystal Form and Application Thereof” (ASCENTAWITS PHARMACEUTICALS, LTD., priority 2023, published 2025).
Where two headings read alike, the source gives them in different places.

Procedure: On different days, samples were taken at the same time for analysis and detection of related substances, and their contents were recorded.

## isophosphoramide nitrogen mustard [Br-IPM]
Placed at 40° C.
  Stability of the Br-IPM crystals on storage (in words): unstable
Stored at 2-8° C., day 0
  Br-IPM content in the analysis of related substances: 93.23%
Stored at 2-8° C., day 3
  Br-IPM content in the analysis of related substances: 93.28%
Stored at 2-8° C., day 4
  Br-IPM content in the analysis of related substances: 95.06%
Stored at 2-8° C., day 5
  Br-IPM content in the analysis of related substances: 94.29%
Stored at 2-8° C., day 6
  Br-IPM content in the analysis of related substances: 94.56%
Stored at 2-8° C., day 7
  Br-IPM content in the analysis of related substances: 95.57%
Stored at 2-8° C., day 10
  Br-IPM content in the analysis of related substances: 95.17%
Stored at 2-8° C., day 11
  Br-IPM content in the analysis of related substances: 95.07%
Stored at 2-8° C., day 12
  Br-IPM content in the analysis of related substances: 95.07%
Stored at 2-8° C., day 13
  Br-IPM content in the analysis of related substances: 95.44%
Stored at 2-8° C., day 14
  Br-IPM content in the analysis of related substances: 95.25%
Stored at 2-8° C., day 17
  Br-IPM content in the analysis of related substances: 95.76%
Stored at 2-8° C., day 21
  Br-IPM content in the analysis of related substances: 95.19%
Stored at 2-8° C., day 28
  Br-IPM content in the analysis of related substances: 96.22%
Stored at 2-8° C., day 35
  Br-IPM content in the analysis of related substances: 95.09%
Stored at 25° C. (room temperature)
  Time for which the Br-IPM crystals are relatively stable / can be stored: 28 days
Stored at 25° C., day 0
  Br-IPM content in the analysis of related substances: 93.23%
Stored at 25° C., day 3
  Br-IPM content in the analysis of related substances: 94.17%
Stored at 25° C., day 4
  Br-IPM content in the analysis of related substances: 94.89%
Stored at 25° C., day 5
  Br-IPM content in the analysis of related substances: 94.53%
Stored at 25° C., day 6
  Br-IPM content in the analysis of related substances: 94.32%
Stored at 25° C., day 7
  Br-IPM content in the analysis of related substances: 93.86%
Stored at 25° C., day 10
  Br-IPM content in the analysis of related substances: 94.64%
Stored at 25° C., day 11
  Br-IPM content in the analysis of related substances: 95.25%
Stored at 25° C., day 12
  Br-IPM content in the analysis of related substances: 94.97%
Stored at 25° C., day 13
  Br-IPM content in the analysis of related substances: 95.28%
Stored at 25° C., day 14
  Br-IPM content in the analysis of related substances: 94.61%
Stored at 25° C., day 17
  Br-IPM content in the analysis of related substances: 94.75%
Stored at 25° C., day 21
  Br-IPM content in the analysis of related substances: 93.81%
Stored at 25° C., day 28
  Br-IPM content in the analysis of related substances: 94.01%
Stored at 25° C., day 35
  Br-IPM content in the analysis of related substances: 91.42%
Stored at 40° C., day 0
  Br-IPM content in the analysis of related substances: 93.23%
Stored at 40° C., day 3
  Br-IPM content in the analysis of related substances: 86.36%
Stored at −5° C., day 0
  Br-IPM content in the analysis of related substances: 93.23%
Stored at −5° C., day 3
  Br-IPM content in the analysis of related substances: 94.65%
Stored at −5° C., day 4
  Br-IPM content in the analysis of related substances: 95.12%
Stored at −5° C., day 5
  Br-IPM content in the analysis of related substances: 94.07%
Stored at −5° C., day 6
  Br-IPM content in the analysis of related substances: 95.48%
Stored at −5° C., day 7
  Br-IPM content in the analysis of related substances: 94.96%
Stored at −5° C., day 10
  Br-IPM content in the analysis of related substances: 95.03%
Stored at −5° C., day 11
  Br-IPM content in the analysis of related substances: 95.50%
Stored at −5° C., day 12
  Br-IPM content in the analysis of related substances: 95.04%
Stored at −5° C., day 13
  Br-IPM content in the analysis of related substances: 95.23%
Stored at −5° C., day 14
  Br-IPM content in the analysis of related substances: 95.28%
Stored at −5° C., day 17
  Br-IPM content in the analysis of related substances: 95.07%
Stored at −5° C., day 21
  Br-IPM content in the analysis of related substances: 95.30%
Stored at −5° C., day 28
  Br-IPM content in the analysis of related substances: 94.83%
Stored at −5° C., day 35
  Br-IPM content in the analysis of related substances: 94.64%
